Experiments:
[1] = target: T1, Transcription regulator protein BACH1 (Homo sapiens) (UniProt O14867); assay: Inhibition of Bach1 in normal human lung fibroblasts assessed as induction of HMOX protein expression by measuring HMOX positive cells level at 0.039 uM incubated for 16 to 18 hrs by immunostaining relative to control DMSO; design: scale not given: the % may be the effect or the level left
T1 sequence (whole entry): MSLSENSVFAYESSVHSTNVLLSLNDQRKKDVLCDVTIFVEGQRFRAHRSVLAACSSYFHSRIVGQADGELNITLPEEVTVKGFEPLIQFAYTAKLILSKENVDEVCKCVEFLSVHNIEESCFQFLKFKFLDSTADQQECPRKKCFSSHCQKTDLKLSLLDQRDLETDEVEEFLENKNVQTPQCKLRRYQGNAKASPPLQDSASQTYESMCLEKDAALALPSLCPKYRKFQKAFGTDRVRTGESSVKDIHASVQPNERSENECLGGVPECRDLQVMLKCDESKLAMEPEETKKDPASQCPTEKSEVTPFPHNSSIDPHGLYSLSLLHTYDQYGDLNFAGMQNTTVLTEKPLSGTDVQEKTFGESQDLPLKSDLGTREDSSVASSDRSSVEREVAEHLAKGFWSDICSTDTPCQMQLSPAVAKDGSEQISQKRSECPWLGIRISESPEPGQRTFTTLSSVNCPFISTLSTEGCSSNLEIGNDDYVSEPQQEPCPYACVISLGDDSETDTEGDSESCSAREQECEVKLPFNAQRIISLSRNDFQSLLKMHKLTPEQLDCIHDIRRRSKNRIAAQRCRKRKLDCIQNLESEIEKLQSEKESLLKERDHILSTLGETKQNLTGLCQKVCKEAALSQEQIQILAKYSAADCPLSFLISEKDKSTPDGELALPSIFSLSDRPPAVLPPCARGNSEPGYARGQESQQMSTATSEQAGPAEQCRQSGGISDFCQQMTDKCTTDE

[2] = target: T1, Transcription regulator protein BACH1 (Homo sapiens); assay: Inhibition of Bach1 in normal human lung fibroblasts assessed as induction of HMOX protein expression by measuring HMOX positive cells level at 0.019 uM in presence of 0.1 uM Nrf2 activator DMF incubated for 16 to 18 hrs by immunostaining relative to control DMSO; design: scale not given: the % may be the effect or the level left
[3] = target: T1, Transcription regulator protein BACH1 (Homo sapiens); assay: Inhibition of Bach1 in normal human lung fibroblasts assessed as induction of HMOX protein expression by measuring HMOX positive cells level at 0.039 uM in presence of 0.1 uM Nrf2 activator DMF incubated for 16 to 18 hrs by immunostaining relative to control DMSO; design: scale not given: the % may be the effect or the level left
[4] = target: T1, Transcription regulator protein BACH1 (Homo sapiens); assay: Inhibition of Bach1 in normal human lung fibroblasts assessed as induction of HMOX protein expression by measuring HMOX positive cells level at 0.019 uM in presence of 0.3 uM Nrf2 activator DMF incubated for 16 to 18 hrs by immunostaining relative to control DMSO; design: scale not given: the % may be the effect or the level left
[5] = target: T1, Transcription regulator protein BACH1 (Homo sapiens); assay: Inhibition of Bach1 in normal human lung fibroblasts assessed as induction of HMOX protein expression by measuring HMOX positive cells level at 0.156 uM in presence of 0.3 uM Nrf2 activator DMF incubated for 16 to 18 hrs by immunostaining relative to control DMSO; design: scale not given: the % may be the effect or the level left
[6] = target: T1, Transcription regulator protein BACH1 (Homo sapiens); assay: Inhibition of Bach1 in normal human lung fibroblasts assessed as induction of HMOX protein expression by measuring HMOX positive cells level at 0.078 uM in presence of 1 uM Nrf2 activator DMF incubated for 16 to 18 hrs by immunostaining relative to control DMSO; design: scale not given: the % may be the effect or the level left
[7] = target: T1, Transcription regulator protein BACH1 (Homo sapiens); assay: Inhibition of Bach1 in normal human lung fibroblasts assessed as induction of HMOX protein expression by measuring HMOX positive cells level at 0.156 uM in presence of 1 uM Nrf2 activator DMF incubated for 16 to 18 hrs by immunostaining relative to control DMSO; design: scale not given: the % may be the effect or the level left
[8] = target: T1, Transcription regulator protein BACH1 (Homo sapiens); assay: Inhibition of Bach1 in normal human lung fibroblasts assessed as induction of HMOX protein expression by measuring HMOX positive cells level at 0.039 uM in presence of 3 uM Nrf2 activator DMF incubated for 16 to 18 hrs by immunostaining relative to control DMSO; design: scale not given: the % may be the effect or the level left
[9] = target: T1, Transcription regulator protein BACH1 (Homo sapiens); assay: Inhibition of Bach1 in normal human lung fibroblasts assessed as induction of HMOX protein expression by measuring HMOX positive cells level at 0.039 uM in presence of 30 uM Nrf2 activator DMF incubated for 16 to 18 hrs by immunostaining relative to control DMSO; design: scale not given: the % may be the effect or the level left
[10] = target: T1, Transcription regulator protein BACH1 (Homo sapiens); assay: Inhibition of Bach1 in normal human lung fibroblasts assessed as induction of HMOX protein expression at 0.039 uM incubated for 16 to 18 hrs by immunostaining relative to control
[11] = target: T1, Transcription regulator protein BACH1 (Homo sapiens); assay: Inhibition of Bach1 in normal human lung fibroblasts assessed as induction of HMOX protein expression at 0.078 uM incubated for 16 to 18 hrs by immunostaining relative to control
[12] = target: T1, Transcription regulator protein BACH1 (Homo sapiens); assay: Inhibition of Bach1 in normal human lung fibroblasts assessed as induction of HMOX protein expression at 0.078 uM in presence of 0.03 uM Nrf2 activator DMF incubated for 16 to 18 hrs by immunostaining relative to control
[13] = target: T1, Transcription regulator protein BACH1 (Homo sapiens); assay: Inhibition of Bach1 in normal human lung fibroblasts assessed as induction of HMOX protein expression at 0.156 uM in presence of 0.03 uM Nrf2 activator DMF incubated for 16 to 18 hrs by immunostaining relative to control
[14] = target: T1, Transcription regulator protein BACH1 (Homo sapiens); assay: Inhibition of Bach1 in normal human lung fibroblasts assessed as induction of HMOX protein expression at 0.078 uM in presence of 0.1 uM Nrf2 activator DMF incubated for 16 to 18 hrs by immunostaining relative to control
[15] = target: T1, Transcription regulator protein BACH1 (Homo sapiens); assay: Inhibition of Bach1 in normal human lung fibroblasts assessed as induction of HMOX protein expression at 0.156 uM in presence of 0.1 uM Nrf2 activator DMF incubated for 16 to 18 hrs by immunostaining relative to control
[16] = target: T1, Transcription regulator protein BACH1 (Homo sapiens); assay: Inhibition of Bach1 in normal human lung fibroblasts assessed as induction of HMOX protein expression at 0.078 uM in presence of 1 uM Nrf2 activator DMF incubated for 16 to 18 hrs by immunostaining relative to control
[17] = target: T1, Transcription regulator protein BACH1 (Homo sapiens); assay: Inhibition of Bach1 in normal human lung fibroblasts assessed as induction of HMOX protein expression at 0.156 uM in presence of 1 uM Nrf2 activator DMF incubated for 16 to 18 hrs by immunostaining relative to control
[18] = target: T1, Transcription regulator protein BACH1 (Homo sapiens); assay: Inhibition of Bach1 in normal human lung fibroblasts assessed as induction of HMOX protein expression at 0.019 uM in presence of 3 uM Nrf2 activator DMF incubated for 16 to 18 hrs by immunostaining relative to control
[19] = target: T1, Transcription regulator protein BACH1 (Homo sapiens); assay: Inhibition of Bach1 in normal human lung fibroblasts assessed as induction of HMOX protein expression at 0.039 uM in presence of 30 uM Nrf2 activator DMF incubated for 16 to 18 hrs by immunostaining relative to control
[20] = target: T1, Transcription regulator protein BACH1 (Homo sapiens); assay: Inhibition of Bach1 in normal human lung fibroblasts assessed as induction of HMOX protein expression at 0.078 uM in presence of 30 uM Nrf2 activator DMF incubated for 16 to 18 hrs by immunostaining relative to control

| Structure (SMILES) | Activity [1] [%] | Activity [2] [%] | Activity [3] [%] | Activity [4] [%] | Activity [5] [%] | Activity [6] [%] | Activity [7] [%] | Activity [8] [%] | Activity [9] [%] | fold change (FC) [10] | fold change (FC) [11] | fold change (FC) [12] | fold change (FC) [13] | fold change (FC) [14] | fold change (FC) [15] | fold change (FC) [16] | fold change (FC) [17] | fold change (FC) [18] | fold change (FC) [19] | fold change (FC) [20] |
| --- | --- | --- | --- | --- | --- | --- | --- | --- | --- | --- | --- | --- | --- | --- | --- | --- | --- | --- | --- | --- |
| CN(C)C(=O)CNC(=O)c1ccc2c(c1)nc(Nc1nc3ccc(C(F)(F)F)cc3s1)n2C | 2.31 | 2.37 | 6.82 | 6.49 | 50 | 37.7 | 66.7 | 68 | 90.4 | 1.37 | 1.59 | 1.37 | 1.99 | 1.48 | 2.54 | 2.53 | 4.08 | 2.86 | 4.9 | 6.18 |
| COCCNC(=O)c1cnc2c(c1)nc(Nc1nc3ccc(OC(F)(F)F)cc3s1)n2C | 5.3 | 2.55 | 2.54 | 8.27 | 30.1 | 29.4 | 57.7 | 75.8 | 87.5 | 1.45 | 1.46 | 1.12 | 1.46 | 1.21 | 1.73 | 2.29 | 2.87 | 2.98 | 4.82 | 4.52 |
| Cn1c(Nc2nc3ccc(C(F)(F)F)cc3s2)nc2cc(C(=O)NCCOCCO)ccc21 | 28 | 4.52 | 6.75 | 7.63 | 94.5 | 84.8 | 97.7 | 78.7 | 91.9 | 2.51 | 4.34 | 2.35 | 5.22 | 2.87 | 4.89 | 3.83 | 6.04 | 3.55 | 5.52 | 4.8 |
| CNC(=O)c1ccc2c(c1)nc(Nc1nc3ccc(OC(F)(F)F)cc3s1)n2C | – | – | – | – | – | – | – | – | – | 1.09 | 1.92 | – | – | – | – | – | – | – | – | – |
